This experiment concerns the target T1, Human TRPC6 (Homo sapiens, UniProt Q9Y210).
T1 construct: expressed in transfected cells
T1 sequence (Q9Y210 1-931): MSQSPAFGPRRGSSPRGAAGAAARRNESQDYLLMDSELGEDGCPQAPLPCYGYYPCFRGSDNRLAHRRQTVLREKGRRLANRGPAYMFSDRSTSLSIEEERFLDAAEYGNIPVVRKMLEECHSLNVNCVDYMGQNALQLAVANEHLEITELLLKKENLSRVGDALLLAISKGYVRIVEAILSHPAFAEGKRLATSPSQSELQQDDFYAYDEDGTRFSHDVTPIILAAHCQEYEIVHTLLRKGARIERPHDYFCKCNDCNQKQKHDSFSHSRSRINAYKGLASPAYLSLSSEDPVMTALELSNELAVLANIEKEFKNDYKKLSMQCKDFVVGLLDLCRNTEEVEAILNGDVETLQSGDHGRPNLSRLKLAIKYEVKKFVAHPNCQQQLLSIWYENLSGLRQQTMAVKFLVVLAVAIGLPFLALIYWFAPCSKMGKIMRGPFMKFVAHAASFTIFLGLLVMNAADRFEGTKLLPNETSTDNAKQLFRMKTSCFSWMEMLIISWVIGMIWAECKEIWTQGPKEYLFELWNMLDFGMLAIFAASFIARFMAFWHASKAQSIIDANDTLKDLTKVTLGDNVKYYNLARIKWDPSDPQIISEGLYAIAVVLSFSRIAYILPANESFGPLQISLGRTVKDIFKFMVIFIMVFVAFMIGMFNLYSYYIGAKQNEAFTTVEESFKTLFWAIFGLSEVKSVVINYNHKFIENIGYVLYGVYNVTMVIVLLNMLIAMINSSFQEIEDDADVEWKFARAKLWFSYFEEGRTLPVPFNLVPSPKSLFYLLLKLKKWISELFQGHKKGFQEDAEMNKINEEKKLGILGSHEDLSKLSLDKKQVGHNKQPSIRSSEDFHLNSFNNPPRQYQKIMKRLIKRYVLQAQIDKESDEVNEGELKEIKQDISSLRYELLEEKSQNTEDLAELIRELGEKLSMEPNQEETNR
Put plainly: Evaluation of TRPC6 channel inhibitory activity (1), FLIPR Calcium 5 Assay Kit, OAG stimulation (Compound Nos. 1-1293). As to conditions: Human TRPC6 stably-expressing cells, OAG 30 μM, FLIPR Calcium 5 Assay Kit; read-out: Inhibitory activity (pIC50 class) (converted). The experiment is classed as cell-based. The method in brief:
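TRPC6 (human) stable cells, 24 h culture; Ca5 no-wash dye + probenecid 30 min; cpd 20 min; OAG 30 μM final; ΔF (pre-cpd min to post-OAG max); 0%/100% = no cpd / no cpd + no OAG; 4PL → pIC50, binned +/++/+++.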
With `Cc1cc(Oc2cc(C#N)ccc2-c2ncc(CNCC(N)=O)cn2)cc(-c2ccccn2)n1` [compound 841, 2-[[2-[4-cyano-2-(2-methyl-6-pyridin-2-ylpyridin-4-yl)oxyphenyl]pyrimidin-5-yl]methylamino]acetamide], the IC50 is above 1 µM.

For the compound `N#Cc1ccc(-n2ccc(CN)n2)c(Oc2cnnc(-c3ccccc3)c2)c1` [Compound 135, 4-[3-(aminomethyl)pyrazol-1-yl]-3-(6-phenylpyridazin-4-yl)oxybenzonitrile], the IC50 was above 1 µM. Turning to `Cn1nc(-c2ccc(F)cc2)cc1Oc1cc(C#N)ccc1-c1ccc(CCN)cc1` [Compound 165, 4-[4-(2-aminoethyl)phenyl]-3-[5-(4-fluorophenyl)-2-methylpyrazol-3-yl]oxybenzonitrile], the IC50 is 0.01 to 1 µM. Regarding `Cn1nc(C2CC2)cc1Oc1cc(C#N)ccc1-c1nnc(CN)s1` [compound 582, 4-[5-(aminomethyl)-1,3,4-thiadiazol-2-yl]-3-(5-cyclopropyl-2-methylpyrazol-3-yl)oxybenzonitrile], the IC50 is above 1 µM. For `Cc1nc(Oc2cc(F)ccc2-c2ncc(CCN)cn2)cc(N2CCOCC2)n1` [compound 965, 2-[2-[4-fluoro-2-(2-methyl-6-morpholin-4-ylpyrimidin-4-yl)oxyphenyl]pyrimidin-5-yl]ethanamine] the value was 0.01 to 1 µM. As to `N#Cc1ccc(-c2ncc(CCN)cn2)c(Cn2cc(N3CCCC3)cn2)c1` [Compound No. 1198, 4-[5-(2-Aminoethyl)pyrimidin-2-yl]-3-[(4-pyrrolidin-1-ylpyrazol-1-yl)methyl]benzonitrile], the IC50 is 0.01 to 1 µM. Take `Cc1nc(Oc2cc(C#N)ccc2-n2cc([C@@H](O)CN)cn2)cc(OC2CCCCC2)n1` [Compound 266, 4-[4-[(1R)-2-amino-1-hydroxyethyl]pyrazol-1-yl]-3-(6-cyclohexyloxy-2-methylpyrimidin-4-yl)oxybenzonitrile]: the IC50 is below 0.01 µM.

For the compound `Cc1nc(-c2cccc(F)c2)cn1Cc1cc(C#N)ccc1-c1ccc(CCN)cn1` [compound 1156, 4-[5-(2-aminoethyl)pyridin-2-yl]-3-[[4-(3-fluorophenyl)-2-methylimidazol-1-yl]methyl]benzonitrile], the IC50 was below 0.01 µM.

With `Cc1cc(Oc2nc(C#N)ccc2-c2ncc(CN)cn2)cc(-c2ccccn2)n1` [compound 1286, 5-[5-(aminomethyl)pyrimidin-2-yl]-6-(2-methyl-6-pyridin-2-ylpyridin-4-yl)oxypyridine-2-carbonitrile], the IC50 is above 1 µM.

Regarding `Cc1nc(Oc2cc(C#N)ccc2-c2ccc3c(c2)CNCC3)cc(N2CCOCC2)n1` [Compound 95, 3-(2-methyl-6-morpholin-4-ylpyrimidin-4-yl)oxy-4-(1,2,3,4-tetrahydroisoquinolin-7-yl)benzonitrile], the IC50 was above 1 µM. On to `Cc1nc(Oc2cc(C#N)ccc2-c2ccc(C3CNC3)cc2)cc(N2CCOCC2)n1` [Compound 52, 4-[4-(azetidin-3-yl)phenyl]-3-(2-methyl-6-morpholin-4-ylpyrimidin-4-yl)oxybenzonitrile], for which the IC50 was 0.01 to 1 µM. `N#Cc1ccc(-c2ncc(CN)cn2)c(Cn2cc(-c3ccccc3)nn2)c1` [compound 1168, 4-[5-(aminomethyl)pyrimidin-2-yl]-3-[(4-phenyltriazol-1-yl)methyl]benzonitrile]: the IC50 was 0.01 to 1 µM. As to `Cc1cc(Oc2cc(C#N)ccc2-c2ncc(CCN)cn2)cc(OCC2CCO2)n1` (stereo not shown) [compound 473, 4-[5-(2-aminoethyl)pyrimidin-2-yl]-3-[2-methyl-6-(oxetan-2-ylmethoxy)pyridin-4-yl]oxybenzonitrile], the IC50 was 0.01 to 1 µM.

Turning to `N#Cc1ccc(-c2ccc(CCN)cc2)c(C(=O)c2nnc(N3CCOCC3)o2)c1` [compound 1086, 4-[4-(2-aminoethyl)phenyl]-3-(5-morpholin-4-yl-1,3,4-oxadiazole-2-carbonyl)benzonitrile], the IC50 is below 0.01 µM. In the case of `NCCc1ccc(-c2ccc(F)cc2C(=O)c2cnn(C3CCC3)c2)nc1` [compound 1110, [2-[5-(2-aminoethyl)pyridin-2-yl]-5-fluorophenyl]-(1-cyclobutylpyrazol-4-yl)methanone], the IC50 is below 0.01 µM.

With `Cc1nc(Oc2cc(C#N)ccc2-c2ncc(CCN)cn2)cc(N2CCC(F)CC2)n1` [compound 668, 4-[5-(2-aminoethyl)pyrimidin-2-yl]-3-[6-(4-fluoropiperidin-1-yl)-2-methylpyrimidin-4-yl]oxybenzonitrile], the IC50 is below 0.01 µM.

For `CC(N)c1cnc(-c2ccc(C#N)cc2Oc2cc(-c3ccccn3)nn2C)nc1` (stereo not shown) [compound 702, 4-[5-(1-aminoethyl)pyrimidin-2-yl]-3-(2-methyl-5-pyridin-2-ylpyrazol-3-yl)oxybenzonitrile], the IC50 was below 0.01 µM.

For the compound `Cn1nc(C2CC2)cc1Oc1cc(C#N)ccc1-c1ccc(CC(C)(C)N)cn1` [compound 334, 4-[5-(2-amino-2-methylpropyl)pyridin-2-yl]-3-(5-cyclopropyl-2-methylpyrazol-3-yl)oxybenzonitrile], the IC50 was below 0.01 µM. Under `N#Cc1ccc(-c2ncc(CCN)cn2)c(Cn2cncc2-c2ccccc2)c1` [compound 1134, 4-[5-(2-aminoethyl)pyrimidin-2-yl]-3-[(5-phenylimidazol-1-yl)methyl]benzonitrile] stands above 1 µM; under `CC(C)n1nc(-c2ccccc2)cc1Oc1cc(C#N)ccc1-c1ccc([C@@H](O)CN)cn1` [compound 383, 4-[5-[(1R)-2-amino-1-hydroxyethyl]pyridin-2-yl]-3-(5-phenyl-2-propan-2-ylpyrazol-3-yl)oxybenzonitrile], below 0.01 µM. On to `N#Cc1ccc(-c2ccc(CCN)nc2)c(Oc2cnnc(N3CCOCC3)c2)c1` [Compound 77, 4-[6-(2-aminoethyl)pyridin-3-yl]-3-(6-morpholin-4-ylpyridazin-4-yl)oxybenzonitrile], for which the IC50 is above 1 µM.

Regarding `Cc1nc(Oc2cc(C#N)ccc2-c2nc(C)c(CN(C)C)s2)cc(-c2ccccc2)n1` [Compound 143, 4-[5-[(dimethylamino)methyl]-4-methyl-1,3-thiazol-2-yl]-3-(2-methyl-6-phenylpyrimidin-4-yl)oxybenzonitrile], the IC50 was above 1 µM. As to `Cc1nc(OCCCF)cc(Oc2cc(C#N)ccc2-c2ccc(CCN)cc2)n1` [Compound 36, 4-[4-(2-aminoethyl)phenyl]-3-[6-(3-fluoropropoxy)-2-methylpyrimidin-4-yl]oxybenzonitrile], the IC50 was 0.01 to 1 µM.

For `Cn1nc(C2CC2)cc1Oc1cc(C#N)ccc1-c1cc(C(=O)N2CCNCC2)ccn1` [compound 552, 3-(5-cyclopropyl-2-methylpyrazol-3-yl)oxy-4-[4-(piperazine-1-carbonyl)pyridin-2-yl]benzonitrile], the IC50 was above 1 µM. For `Cc1cc(-c2ccccc2)nn1Cc1cc(C#N)ccc1-c1ccc(CCN)cn1` [compound 1158, 4-[5-(2-aminoethyl)pyridin-2-yl]-3-[(5-methyl-3-phenylpyrazol-1-yl)methyl]benzonitrile] the value was above 1 µM.

For `N#Cc1ccc(-c2ccc(CCN)cn2)c(Sc2cnnc(N3CCOCC3)c2)c1` [compound 1242, 4-[5-(2-aminoethyl)pyridin-2-yl]-3-(6-morpholin-4-ylpyridazin-4-yl)sulfanylbenzonitrile], the IC50 is 0.01 to 1 µM. For `Cc1csc(-c2cc(Oc3cc(C#N)ccc3-c3ncc(CN)cn3)n(C)n2)n1` [compound 959, 4-[5-(aminomethyl)pyrimidin-2-yl]-3-[2-methyl-5-(4-methyl-1,3-thiazol-2-yl)pyrazol-3-yl]oxybenzonitrile] the value was 0.01 to 1 µM; for `Cn1nc(C2CCOCC2)cc1Oc1cc(C#N)ccc1-c1ncc(CN)cn1` [compound 441, 4-[5-(aminomethyl)pyrimidin-2-yl]-3-[2-methyl-5-(oxan-4-yl)pyrazol-3-yl]oxybenzonitrile], below 0.01 µM; for `Cc1nc(Oc2cc(C#N)ccc2-c2ncc(C(O)CN)s2)cc(-c2ccccc2)n1` (stereo not shown) [Compound 224, 4-[5-(2-amino-1-hydroxyethyl)-1,3-thiazol-2-yl]-3-(2-methyl-6-phenylpyrimidin-4-yl)oxybenzonitrile], 0.01 to 1 µM. With `CN(C)c1cc(Oc2cc(F)ccc2-c2ncc(CN)cn2)n(C)n1` [compound 997, 5-[2-[5-(aminomethyl)pyrimidin-2-yl]-5-fluorophenoxy]-N,N,1 trimethylpyrazole-3-amine], the IC50 was 0.01 to 1 µM. For `Cn1nc(C2CCOCC2)cc1Oc1cc(F)ccc1-c1ccc(CCN)cn1` [compound 1010, 2-[6-[4-fluoro-2-[2-methyl-5-(oxan-4-yl)pyrazol-3-yl]oxyphenyl]pyridin-3-yl]ethanamine] the value was below 0.01 µM.

These data come from patent publication US20230167073A1 (Teijin Pharma Limited, priority 2020, published 2023).
